Results published in patent US20240041876A1, “PHARMACEUTICAL COMPOSITION FOR PREVENTION OR TREATMENT OF DEGENERATIVE BRAIN DISEASES COMPRISING ABEMACICLIB AS ACTIVE INGREDIENT” (priority 2020, published 2024).

Assays:
BV2 microglia = assay: MTT assay, cytotoxicity to BV2 microglia; type: cell-based; details: 0.1, 1, 5, 10, 25, or 50 μM; 24 hours in the absence of FBS
Description: Cell viability was measured using the 3-(4,5-dimethylthiazol-2-yl)-2,5-diphenyltetrazolium bromide (MTT) assay. BV2 microglia were seeded in a 96-well plate and treated with various concentrations of abemaciclib mesylate (0.1, 1, 5, 10, 25, 50 μM) for 24 hours in the absence of FBS. Then, the cells were treated with 0.5 mg/ml MTT and incubated at 37° C. for 3 hours in a 5% CO2 incubator, and absorbance was measured at 580 nm.
To determine whether or not abemaciclib is cytotoxic to BV2 microglia, BV2 microglia were treated with abemaciclib at different concentrations (0.1, 1, 5, 10, 25, or 50 μM) and then MTT assay was performed.

5×FAD mice [1] = assay: Abemaciclib versus donepezil: tau kinases phospho-GSK-3β and DYRK1A in 5×FAD mice; type: in vivo, mouse; details: abemaciclib 30 mg/kg or donepezil 1 mg/kg intraperitoneal daily for 14 days
Description: F1-generation male 5×FAD mice (stock #34848-JAX, B6Cg-Tg APPSwF1Lon, PSEN1*M146L*L286V6799Vas/Mmjax) purchased from Jackson Laboratory were used. 5×FAD mice (3 months old) were bred in a sterile facility under 12-hour light/dark controlled conditions at an ambient temperature of 22° C. After daily administration of abemaciclib (30 mg/kg, intraperitoneal administration) or vehicle (10% DMSO) to 5×FAD mice for 14 days, Y maze test on day 15 and NOR test on day 16 to 17 were performed, followed by fluorescent tissue staining or Golgi staining.
Then, each brain section was subjected to immunohistochemical staining. Brain sections were rinsed in PBS and permeabilized for 1 hour at room temperature using PBS containing 0.2% Triton X-100 and 1% BSA. Then, the primary antibody was diluted in PBST (0.2% Triton X-100 in PBS) and reacted at 4° C. for 24 hours, and the next day, the tissue was washed three times with PBST, and then reacted with a secondary antibody bound with a fluorescent signal at room temperature for 2 hours. Then, the brain sections were washed three times with PBS, placed on slides, and observed under a fluorescence microscope.

5×FAD mice [2] = assay: Abemaciclib versus donepezil: astrocyte activity in 5×FAD mice (anti-GFAP, anti-6E10); type: in vivo, mouse; details: abemaciclib 30 mg/kg or donepezil 1 mg/kg intraperitoneal daily for 14 days
5×FAD mice [3] = assay: Abemaciclib versus donepezil: cognitive function in 5×FAD mice (Y maze, NOR); type: in vivo, mouse; details: abemaciclib 30 mg/kg or donepezil 1 mg/kg intraperitoneal daily for 14 days
Description: Then, percent alteration=(number of alterations/number of triads)×100 was obtained and used as a parameter of short-term memory. • Alteration: 1 point awarded when the mouse enters three different arms in turn • Triads: Total visits—2
The animal was allowed to start from the center of the box, and the time at which the animal was interested in the object was recorded for 5 minutes. After 24 hours, one of the two objects was replaced with fresh one, the times at which the mouse approached the old object and the fresh object were measured, and the preference for the new object was analyzed and used as a long-term memory analysis index.

## CCN1CCN(Cc2ccc(Nc3ncc(F)c(-c4cc(F)c5nc(C)n(C(C)C)c5c4)n3)nc2)CC1 [abemaciclib]
BV2 microglia
  cytotoxicity to BV2 microglia (MTT assay): did not induce cytotoxicity

## COc1cc2c(cc1OC)C(=O)C(CC1CCN(Cc3ccccc3)CC1)C2 (stereo not shown) [donepezil]
5×FAD mice [1]
  expression of DYRK1A, a tau kinase, in the cortex: reduced
  expression of DYRK1A, a tau kinase, in the hippocampus: reduced
  hippocampal phospho-GSK-3β levels: reduced
5×FAD mice [2]
  number of astrocytes directly interacting with amyloid plaques: reduced
5×FAD mice [3]; day 15
  short-term memory (Y maze): improved
5×FAD mice [3]; day 16-17
  long-term memory (NOR test): improved
